Experimental findings from US4058659A, “6,8-Disubstituted purine derivatives of 9-β-D-ribofuranosyl 3',5'-cyclic phosphate” (ICN Pharmaceuticals, Inc., priority 1975, dated 1977) are described below.

Molecules are shown by their SMILES. Counter-ions that a name gives are not always drawn.

In test [1] the test system is isolated cat papillary muscle. In words: Positive inotropic effect: % change in contractile force in isolated cat papillary muscle. The conditions noted are these: for activation at 1 µg/mL: 1.0 μg/ml; for activation at 3.1 µg/mL: 3.1 μg/ml; for activation at 10 µg/mL: 10.0 μg/ml; for activation at 31 µg/mL: 31.0 μg/ml; for activation at 100 µg/mL: 100 μg/ml; for activation at 310 µg/mL: 310 μg/ml; for positive inotropic effect: statement in words, isolated cat papillary muscle.

The next test deals with phosphodiesterase. Briefly: Phosphodiesterase inhibition. The format is biochemical.
Setting [2] is: Felis catus, read-out: % change in Contractile Force (CF).

As to `CCCCNc1ncnc2c1nc(Sc1ccc(Cl)cc1)n2[C@@H]1O[C@@H]2COP(=O)(O)O[C@H]2[C@H]1O` [Compound 36, 6-n-Butylamino-8-(p-chlorophenylthio)-9-β-D-ribofuranosylpurine 3',5'-Cyclic Phosphate], in test [1] (setting [2]), the activation at 1 µg/mL came out at 9.8%, the activation at 3.1 µg/mL was determined as 15%, the activation at 10 µg/mL worked out at 52.7% and the activation at 31 µg/mL turned out to be 62.3%. Moreover, in test [1] (setting [2]), the activation at 100 µg/mL came out at 29.4% and the activation at 310 µg/mL was found to be 101%. For the same molecule, the positive inotropic effect entry in test [1] is recorded as “exhibit positive inotropic effect”.

As to `O=P1(O)OC[C@H]2O[C@@H](n3c(SCc4ccccc4)nc4c(SCc5ccccc5)ncnc43)[C@H](O)[C@@H]2O1` [Compound 14, 6,8-Bis-(benzylthio)-9-D-ribofuranosylpurine 3',5'-Cyclic Phosphate Sodium Salt], the inhibition of phosphodiesterase result with phosphodiesterase is on record as “inhibit phosphodiesterase markedly”.

Regarding `CN(C)c1ncnc2c1nc(SCc1ccccc1)n2[C@@H]1O[C@@H]2COP(=O)(O)O[C@H]2[C@H]1O` [Compound 24, 8-(Benzylthio)-6-dimethylamino-9-β-D-ribofuranosylpurine 3',5'-Cyclic Phosphate], in test [1] (setting [2]), the activation at 1 µg/mL came out at 4%, the activation at 3.1 µg/mL worked out at 9%, the activation at 10 µg/mL came to 13% and the activation at 31 µg/mL worked out at 18%. Moreover, in test [1] (setting [2]), the activation at 100 µg/mL was 45% and the activation at 310 µg/mL was determined as 118%. Further, in test [1], the positive inotropic effect result is given as “exhibit positive inotropic effect”.

Take `CCCNc1ncnc2c1nc(SCc1ccccc1)n2[C@@H]1O[C@@H]2COP(=O)(O)O[C@H]2[C@H]1O` [Compound 20, 8-(Benzylthio)-6-n-propylamino-9-β-D-ribofuranosylpurine 3',5'-Cyclic Phosphate]: the activation at 310 µg/mL in test [1] (setting [2]) came to 30%. Besides, the activation at 500 µg/mL in test [1] (Felis catus, 500 μg/ml, read-out: % change in Contractile Force (CF)) turned out to be 50%. For the same molecule, the positive inotropic effect result in test [1] is reported as “exhibit positive inotropic effect”.

Turning to `CN(C)c1nc(N)nc2c1nc(Cl)n2[C@@H]1O[C@@H]2COP(=O)(O)O[C@H]2[C@H]1O` [Compound 56, 2-Amino-8-chloro-6-dimethylamino-9-β-D-ribofuranosylpurine 3',5'-Cyclic Phosphate], the inhibition of phosphodiesterase result in the test with phosphodiesterase is reported as “inhibit phosphodiesterase markedly”.

Consider `CCN(CC)c1nc2c(Cl)ncnc2n1[C@@H]1O[C@@H]2COP(=O)(O)O[C@H]2[C@H]1O` [Compound 10, 6-Chloro-8-(diethylamino)-9-β-D-ribofuranosylpurine 3',5'-Cyclic Phosphate], for which, in the test with phosphodiesterase, the inhibition of phosphodiesterase result was “inhibit phosphodiesterase markedly”.

With `CCN(CC)c1ncnc2c1nc(SCc1ccccc1)n2[C@@H]1O[C@@H]2COP(=O)(O)O[C@H]2[C@H]1O` [Compound 15, 8-(Benzylthio)-6-(diethylamino)-9-β-D-ribofuranosylpurine 3',5'-CyclicPhosphate], the inhibition of phosphodiesterase entry in the test with phosphodiesterase is on record as “inhibit phosphodiesterase markedly”.

Take `O=P1(O)OC[C@H]2O[C@@H](n3c(SCc4ccccc4)nc4c(NCc5ccccc5)ncnc43)[C@H](O)[C@@H]2O1` [Compound 44, 6-(Benzylamino)-8-(benzylthio)-9-β-D-ribofuranosylpurine 3',5'-Cyclic Phosphate]: the inhibition of phosphodiesterase entry with phosphodiesterase was “inhibit phosphodiesterase markedly”.

As for `O=P1(O)OC[C@H]2O[C@@H](n3c(Sc4ccc(Cl)cc4)nc4c(Nc5ccccc5)ncnc43)[C@H](O)[C@@H]2O1` [Compound 37, 6-Anilino-8-(p-chlorophenylthio)-9-β-D-ribofuranosylpurine 3',5'-Cylic Phosphate], in test [1] (setting [2]), the activation at 1 µg/mL was determined as 2%, the activation at 3.1 µg/mL turned out to be 10.3%, the activation at 10 µg/mL was determined as 31.3% and the activation at 31 µg/mL was determined as 50.2%. Also, in test [1] (setting [2]), the activation at 100 µg/mL was 74.5% and the activation at 310 µg/mL was 82.3%. Besides, the positive inotropic effect result in test [1] is given as “exhibit positive inotropic effect”.
